Measurements: paper doi:10.1101/2024.06.17.599194v1 (biorxiv, 2024)

T1: E. coli IspE (EcIspE) (Escherichia coli, UniProt P62615)
T1 sequence (P62615 1-283): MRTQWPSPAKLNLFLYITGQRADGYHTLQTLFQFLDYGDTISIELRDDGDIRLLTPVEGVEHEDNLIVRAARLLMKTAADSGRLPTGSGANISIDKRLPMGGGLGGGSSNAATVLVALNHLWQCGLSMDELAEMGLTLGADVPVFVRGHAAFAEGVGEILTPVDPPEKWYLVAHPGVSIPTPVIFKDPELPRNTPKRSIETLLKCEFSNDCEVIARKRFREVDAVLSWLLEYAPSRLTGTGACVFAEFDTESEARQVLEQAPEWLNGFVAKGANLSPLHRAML

T2: K. pneumoniae IspE (KpIspE) (Klebsiella pneumoniae, UniProt A6TAP2)
T2 sequence (A6TAP2 1-283): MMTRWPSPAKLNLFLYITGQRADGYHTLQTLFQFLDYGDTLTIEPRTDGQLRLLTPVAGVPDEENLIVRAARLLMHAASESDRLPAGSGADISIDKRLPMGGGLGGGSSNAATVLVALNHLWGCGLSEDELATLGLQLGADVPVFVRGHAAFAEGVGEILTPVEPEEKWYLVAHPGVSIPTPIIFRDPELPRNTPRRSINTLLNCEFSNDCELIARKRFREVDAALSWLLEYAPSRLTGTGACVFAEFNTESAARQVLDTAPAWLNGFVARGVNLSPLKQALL

T3: A. baumannii IspE (AbIspE) (Acinetobacter baumannii, UniProt B2HUM5)
T3 sequence (B2HUM5 1-277): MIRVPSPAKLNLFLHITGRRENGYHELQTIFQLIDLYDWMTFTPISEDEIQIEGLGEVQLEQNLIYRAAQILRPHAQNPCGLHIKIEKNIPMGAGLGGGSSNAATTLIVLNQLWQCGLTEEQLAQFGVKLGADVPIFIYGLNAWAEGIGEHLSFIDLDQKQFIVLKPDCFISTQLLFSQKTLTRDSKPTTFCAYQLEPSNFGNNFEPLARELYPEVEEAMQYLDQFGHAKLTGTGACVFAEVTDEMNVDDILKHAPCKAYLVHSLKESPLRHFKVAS

B1: E. coli IspE (EcIspE) (Escherichia coli K-12) (protein)
chain: T1 sequence (P62615 1-283)
B2: A. baumannii IspE (AbIspE) (Acinetobacter baumannii ACICU) (protein)
chain: T3 sequence (B2HUM5 1-277)
B3: K. pneumoniae IspE (KpIspE) (Klebsiella pneumoniae subsp. pneumoniae MGH 78578) (protein)
chain: T2 sequence (A6TAP2 1-283)

Tests used:
[1] = biological target: T1, E. coli IspE (EcIspE); test: coupled spectrophotometric assay, dose-response; assay type: biochemical
[2] = biological target: T2, K. pneumoniae IspE (KpIspE); test: coupled spectrophotometric assay, dose-response; assay type: biochemical
[3] = biological target: T3, A. baumannii IspE (AbIspE); test: coupled spectrophotometric assay, dose-response; assay type: biochemical
[4] = substrate: C[C@](O)(CO)[C@H](O)COP(=O)(O)OP(=O)(O)OC[C@H]1O[C@@H](n2ccc(N)nc2=O)[C@H](O)[C@@H]1O; test: purified protein; conditions: room temperature; ATP 1 mM
[5] = substrate: Nc1ncnc2c1ncn2[C@@H]1O[C@H](COP(=O)(O)OP(=O)(O)OP(=O)(O)O)[C@@H](O)[C@H]1O; test: purified protein; conditions: room temperature; CDP-ME 2 mM

Molecule | IC50 [1] [µM] | IC50 [2] [µM] | IC50 [3] [µM] | Km [4] [µM] | Km [5] [µM]
Nc1nc(=O)[nH]cc1C#CCNS(=O)(=O)C1CCCCC1 [compound 4, 4] | 6.2 ± 3.19 | 5.2 ± 1.3 |  |  | 
Nc1nc(=O)[nH]cc1C#CCNS(=O)(=O)C1CC1 [compound 2, 2] | 36.5 ± 1.6 | 44.3 ± 4.9 |  |  | 
Nc1nc(=O)n(C2CCCS2)cc1C#CCNS(=O)(=O)C1CC1 (racemic) [compound 1, (±)-1] | 13 ± 2.9 | 8 ± 1.5 | 20 ± 3 |  | 
Nc1nc(=O)[nH]cc1C#CCNS(=O)(=O)C1CCCC1 [compound 3, 3] | 10.3 ± 0.7 | 11.3 ± 0.6 |  |  | 
B1 |  |  |  | 200 | 420
B2 |  |  |  | 358 | 474
B3 |  |  |  | 170 | 348
